Reference: patent publication US9551706B2, “Density-based methods for separation of materials, monitoring of solid supported reactions and measuring densities of small liquid volumes and solids” (President and Fellows of Harvard College, priority 2007, dated 2017)

Assays:
[1] = Capillary electrophoresis (Job's plot) binding affinity of the DT3 ligand for Gd^3+ in methanol; details: 25° C., 1:1 complex with Gd^3+, read-out: dissociation constant (Kd)
Procedure: FIG. 11 is a plot of peak area of the Gd(DT3) by capillary electrophoresis vs. mole fraction of Gd^3+ and illustrates the Job's plot assay for determination of the stoichiometry of and dissociation constant for Gd(DT3) in methanol.
The binding affinity of the DT3 ligand for Gd^3+ and the stoichiometry of the Gd(DT3) complex was determined using capillary electrophoresis (CE). […] See, FIG. 11. […] Gadolinium(III) chloride (the source of Gd^3+ for these experiments) is insoluble in non-polar organic solvents; the dissociation constants was not measured in these solvents.

[2] = Label-free detection of streptavidin binding to solid-supported biotin by magnetic levitation
From the text: Beads of biotin-labeled PEGA polymer swell in water (unlike polystyrene-based solid supports), have a loading capacity of 0.2 mmol amine/g PEGA, and pores of sufficient size for ˜70 kDa proteins to access the biotin on the interior of the polymer. The sensitivity of detection depends directly on the loading capacity (i.e., surface density of reacting groups) of the beads and the molecular weight of the bound molecules. In initial experiments, precipitation was observed after adding proteins to the aqueous Gd^3+ solution, so a Gd3+·DTPA chelate was used instead.
Binding of streptavidin to solid-supported biotin was detected by incubating ˜20 water saturated polymer beads with 20 μL of 0.19-mM protein dissolved in 40-mM potassium phosphate buffer (pH 7.0). After 15 min the solution, was diluted to 1.5 mL to suspend the beads using 210-mM Gd^3+·DTPA in 40-mM potassium phosphate buffer (pH 7.5), and then added ˜20 more biotin-labeled polymer beads. The solution was mixed gently for 5 s with a spatula, and then the cuvette was inserted along the axis of the magnets. After approximately 30 min, all of the beads had clustered into two separate bands (FIG. 19A), the upper one levitating at the same height as the unlabeled PEGA polymer. […]

[3] = Magnetic susceptibility from levitation of a glass bead in solutions of the paramagnetic salt; assay type: physicochemical; details: four solutions 100-175 mM in 9:1 chlorobenzene-toluene, 23° C.
Procedure: The average magnetic susceptibility for solid Gd(DT3) (in the centimeter-gram-second system of units, cgs (cm^3/mol)) was determined by measuring the magnetic susceptibilities for solutions of Gd(DT3) (χl^SI, International System of Units), and by inputting these values into Equation (3). χl^SI=4πχl^CGS[Gd^3+] (3)
Magnetic susceptibility values were measured for solutions of Gd(DT3) (100-175 mM) in 9:1 chlorobenzene-toluene (23° C.) by levitating a glass bead (ρp=1.0900 g/cm^3) in these solutions (FIG. 12A). This mixture of solvents is adequate because it has a density (ρl=1.082±0.003 g/cm^3) slightly below the density of the glass bead that was used. The vertical position of the glass bead (z) in each solution was determined using a ruler, and the densities of the solutions were measured by weighing 1 mL samples. […]
The remaining variable in Equation (1) that required measuring before the calculation of χl^SI could be completed was the strength of the magnetic field at the surface of the magnet (Bmax). […] This value was determined using solutions of GdCl3 (70-100 mM) with known magnetic susceptibilities and by levitating a glass bead (ρp=1.0200 g/cm^3) in these solutions. […]
The calibrated value for Bmax was used to calculate the χl^SI values for the solutions of Gd(DT3) (using Equation (1) and values for ρl and z that were measured experimentally). […]

[4] = known value; cited from earlier work

Question: Which Kd [1] does the source give for “diethylenetriamine triacetic acid tetradecane [DT3 ligand]” here?
Answer: 300 nM

Question: With streptavidin: a 53-kDa protein as the compound, how does the “binding to solid-supported biotin (levitation band)” value ([2]; biotin-labeled PEGA beads, 210-mM Gd^3+·DTPA, 40-mM potassium phosphate buffer) read?
Answer: binding of streptavidin to the solid-supported biotin

Question: And the “non-specific adsorption to unlabeled PEGA polymer (control)” value ([2]; unlabeled PEGA polymer beads)?
Answer: no obvious non-specific adsorption

Question: For “gadolinium(III) diethylenetriamine triacetic acid tetradecane [Gd(DT3)]”, which “average molar magnetic susceptibility χl^CGS” value [3] is on record?
Answer: 0.036±0.003 cm^3/mol

Question: For `[Cl][Mn][Cl]` [MnCl2], which “molar magnetic susceptibility of the solid salt” value [4] is on record?
Answer: 14350×10^−6 cm^3/mol
